# Assay results reported in US8476197B2, “Aminopropenoates as fungicides” (priority 2009, dated 2013).
# Marks after values point to notes of the source that are not given here.
# Conditions: pH 2.3
row,SMILES,Log P
1,CC(C)C(C)NC(=C(C#N)C(=O)NC1CC1)c1cccnc1Cl (stereo not drawn) [Compound 1451],2.74
2,CC(C)C(C)NC(=C(C#N)C(=O)NC1CSC1)c1cccnc1Cl (stereo not drawn) [Compound 1452],3.22^[c]; 3.22^[b]
3,CC(C)C(C)NC(=C(C#N)C(=O)NC1CCC1)c1cccnc1Cl (stereo not drawn) [Compound 1453],3.44^[c]; 3.44^[b]
4,CCONC(=O)C(C#N)=C(NC(C)C(C)C)c1cccnc1Cl (stereo not drawn) [Compound 1454],2.44^[c]; 2.44^[b]
5,CC(C)C(C)NC(=C(C#N)C(=O)NC1COC1)c1cccnc1Cl (stereo not drawn) [Compound 1455],2.24
6,CC(C)C(C)NC(=C(C#N)C(=O)NC1CC1F)c1cccnc1Cl (stereo not drawn) [Compound 1456],2.83^[c]; 2.83^[b]
7,CCOC(=O)C(C#N)=C(NC(C)C(C)C)c1cccnc1-c1ccc(C(F)(F)F)cc1 (stereo not drawn) [Compound 1457],4.23
8,C=CCNC(=O)C(C#N)=C(NC(C)C(C)C)c1cccnc1Cl (stereo not drawn) [Compound 1458],3^[c]; 3^[b]
9,C=CCONC(=O)C(C#N)=C(NC(C)C(C)C)c1cccnc1Cl (stereo not drawn) [Compound 1461],2.66
10,CC(C)C(C)NC(=C(C#N)C(=O)NC1CS(=O)(=O)C1)c1cccnc1Cl (stereo not drawn) [Compound 1469],2.28
11,CCOC(=O)C(C#N)=C(NC(C)C(C)C)c1cccnc1-c1ccc(OC)cc1 (stereo not drawn) [Compound 1472],3.54

# Same assay, conditions: pH 2.7
row,SMILES,Log P
1,CCCc1nccc(C(NC(C)c2nccs2)=C(C#N)C(=O)OCC)c1Cl (stereo not drawn) [Compound 1382],3.27^[a]
2,CCOC(=O)C(C#N)=C(NC(C)c1nccs1)c1ccnc(CC)c1Cl (stereo not drawn) [Compound 1383],2.92^[a]
3,CCOC(=O)C(C#N)=C(NC(C)c1nccs1)c1ccnc(CC(C)C)c1Cl (stereo not drawn) [Compound 1384],3.64^[a]
4,CCOC(=O)C(C#N)=C(NC(C)c1nccs1)c1ccnc(-c2ccccc2)c1Cl (stereo not drawn) [Compound 1385],3.31^[a]
5,CCOC(=O)C(C#N)=C(NC(C)C(=O)NC)c1ccnc(Cl)c1Cl (stereo not drawn) [Compound 1387],2.1^[a]
6,CCOC(=O)C(C#N)=C(Nc1ccccc1SC)c1ccnc(Cl)c1Cl [Compound 1388],3.89^[a]
7,CCOC(=O)C(C#N)=C(NC(C)COC)c1ccnc(Cl)c1Cl (stereo not drawn) [Compound 1392],3.06^[a]
8,CCOC(=O)C(C#N)=C(NC(C)C(C)C)c1ccnc(CC)c1Cl (stereo not drawn) [Compound 1399],4.02^[a]
9,CCCc1nccc(C(NC(C)C(C)C)=C(C#N)C(=O)OCC)c1Cl (stereo not drawn) [Compound 1400],4.41^[a]
10,CCOC(=O)C(C#N)=C(NC(C)C(C)C)c1ccnc(SC)c1Cl (stereo not drawn) [Compound 1401],4.44^[a]
11,CCOC(=O)C(C#N)=C(NC(C)C(C)C)c1ccnc(CC(C)C)c1Cl (stereo not drawn) [Compound 1402],4.81^[a]
12,CCOC(=O)C(C#N)=C(NC(C)C(C)C)c1ccnc(-c2ccccc2)c1Cl (stereo not drawn) [Compound 1403],4.34^[a]
13,CCOC(=O)C(C#N)=C(NC(C)C(C)C)c1ccnc(Cl)c1Br (stereo not drawn) [Compound 1405],3.92^[a]
14,CCNC(=O)C(C#N)=C(NC(C)C(C)C)c1ccnc(Cl)c1Br (stereo not drawn) [Compound 1408],3.53^[a]
15,CCOC(=O)C(C#N)=C(NC(C)C(C)C)c1ccnc(Br)c1Br (stereo not drawn) [Compound 1410],3.96^[a]
16,CCOC(=O)C(C#N)=C(NCc1ncccc1Cl)c1cccnc1Cl [Compound 1412],2.78^[a]
17,CCOC(=O)C(C#N)=C(NCc1ncccc1Cl)c1cccnc1Cl [Compound 1413],2.77^[a]
18,CCOC(=O)C(C#N)=C(NC(C)c1nc(C2CC2)cs1)c1cccnc1Cl (stereo not drawn) [Compound 1416],3.37^[a]
19,CCOC(=O)C(C#N)=C(NC(CC(C)C)C(F)(F)F)c1cn(C)nc1C(F)F (stereo not drawn) [Compound 1417],3.8^[a]
20,CCOC(=O)C(C#N)=C(NC(C)(C)C)c1cn(C)nc1C(F)F [Compound 1418],2.66^[a]
21,CCOC(=O)C(C#N)=C(NC(C)C)c1cn(C)nc1C(F)F [Compound 1419],2.53^[a]
22,CCOC(=O)C(C#N)=C(NC1CCS(=O)(=O)C1)c1cn(C)nc1C(F)F (stereo not drawn) [Compound 1420],1.79^[a]
23,CCOC(=O)C(C#N)=C(NC(C)(C)CC)c1cn(C)nc1C(F)F [Compound 1421],2.96^[a]
24,CCOC(=O)C(C#N)=C(NC(C#N)C(C)C)c1cn(C)nc1C(F)F (stereo not drawn) [Compound 1422],2.76^[a]
25,CCOC(=O)C(C#N)=C(NCC1(C)COC1)c1cn(C)nc1C(F)F [Compound 1423],2.04^[a]
26,CCCC(NC(=C(C#N)C(=O)OCC)c1cn(C)nc1C(F)F)C(F)(F)F (stereo not drawn) [Compound 1424],3.53^[a]
27,CCOC(=O)C(C#N)=C(NC(C)(C)CC)c1cccnc1Cl [Compound 1425],3.23^[a]
28,CCOC(=O)C(C#N)=C(Nc1cc(C(F)(F)F)ccc1SC)c1cn(C)nc1C(F)F [Compound 1426],3.67^[a]

row,SMILES,Log P
1,CCOC(=O)C(C#N)=C(Nc1ccccc1C(O)(C(F)(F)F)C(F)(F)F)c1cn(C)nc1C(F)F [Compound 1427],3.25^[a]
2,CCOC(=O)C(C#N)=C(NC(CC(F)(F)F)c1ccccc1)c1cn(C)nc1C(F)F (stereo not drawn) [Compound 1428],3.37^[a]
3,CCOC(=O)C(C#N)=C(NCC1(C)COC1)c1cccnc1Cl [Compound 1429],2.11^[a]
4,CC#CC1(NC(=C(C#N)C(=O)OCC)c2cccnc2Cl)CCCCC1 [Compound 1430],4.06^[a]
5,CCOCC(NC(=C(C#N)C(=O)OCC)c1cccnc1Cl)C(C)C (stereo not drawn) [Compound 1431],3.69^[a]
6,CCOC(=O)C(C#N)=C(NC1CCCC1OC)c1cccnc1Cl (stereo not drawn) [Compound 1432],2.96^[a]
7,CCCC(CC)NC(=C(C#N)C(=O)OCC)c1cccnc1Cl (stereo not drawn) [Compound 1434],3.8^[a]
8,CCOC(=O)C(C#N)=C(NC1CCc2cccnc21)c1cccnc1Cl (stereo not drawn) [Compound 1436],2.4^[a]
9,CCOC(=O)C(C#N)=C(NC(C)c1ccc(Cl)nc1)c1cccnc1Cl (stereo not drawn) [Compound 1437],2.8^[a]
10,CCOC(=O)C(C#N)=C(NC(C)c1cccc(OC)n1)c1cccnc1Cl (stereo not drawn) [Compound 1438],3.5^[a]
11,CCOC(=O)C(C#N)=C(NC(C)c1cccc(Cl)n1)c1cccnc1Cl (stereo not drawn) [Compound 1439],3.2^[a]
12,CCOC(=O)C(C#N)=C(NC(C)c1cccc(C)n1)c1cccnc1Cl (stereo not drawn) [Compound 1440],2.56^[a]
13,CCOC(=O)C(C#N)=C(NC(C)c1ccc2ccccc2n1)c1cccnc1Cl (stereo not drawn) [Compound 1441],3.37^[a]
14,CCOC(=O)C(C#N)=C(NC(C)c1cc(C)ccn1)c1cccnc1Cl (stereo not drawn) [Compound 1442],2.6^[a]
15,CCOC(=O)C(C#N)=C(NC(C)c1cnc(Cl)s1)c1cccnc1Cl (stereo not drawn) [Compound 1444],3.1^[a]
16,CCOC(=O)C(C#N)=C(NC(C)c1ccc(Cl)cn1)c1cccnc1Cl (stereo not drawn) [Compound 1445],3.3^[a]
17,CCOC(=O)C(C#N)=C(NC(C)c1cc(Cl)cc(C)n1)c1cccnc1Cl (stereo not drawn) [Compound 1446],3.4^[a]
18,CCOC(=O)C(C#N)=C(NC(C)c1csc(-c2ccccc2)n1)c1cccnc1Cl (stereo not drawn) [Compound 1447],4^[a]
19,CCOC(=O)C(C#N)=C(NC(C)c1ncccc1SC)c1cccnc1Cl (stereo not drawn) [Compound 1448],3.1^[a]
20,CCOC(=O)C(C#N)=C(NC(C)c1cc(Cl)ccn1)c1cccnc1Cl (stereo not drawn) [Compound 1449],3^[a]
21,CCOC(=O)C(C#N)=C(NC(C)c1ccccn1)c1scnc1Cl (stereo not drawn) [Compound 1462],2.59^[a]
22,CCOC(=O)C(C#N)=C(NC(C)c1nccs1)c1scnc1Cl (stereo not drawn) [Compound 1463],2.59^[a]
23,CCOC(=O)C(C#N)=C(NC1CCC1)c1scnc1Cl [Compound 1465],3^[a]
24,CCOC(=O)C(C#N)=C(NC(C)C1CC1)c1scnc1Cl (stereo not drawn) [Compound 1466],2.02^[a]
25,CCOC(=O)C(C#N)=C(NC(C)COC)c1scnc1Cl (stereo not drawn) [Compound 1467],2.61^[a]
26,CCOC(=O)C(C#N)=C(NC(C)C(C)C)c1scnc1Cl (stereo not drawn) [Compound 1468],3.46^[a]
27,CCSC(=O)C(C#N)=C(NC(C)C(C)C)c1cccnc1Cl (stereo not drawn) [Compound 1474],3.87^[a]

# Same assay, conditions: pH 7.5
row,SMILES,Log P
1,CCOC(=O)C(C#N)=C(NC(C)c1ccccn1)c1ccc(C)nc1Cl (stereo not drawn) [Compound 1380],2.67
2,CCOC(=O)C(C#N)=C(NC(C)c1ccccn1)c1ccc(Cl)nc1Cl (stereo not drawn) [Compound 1381],3.06
3,CCOC(=O)C(C#N)=C(NC(C)C=NO)c1cccnc1Cl (stereo not drawn) [Compound 1443],1.78
4,C=CCOC(=O)C(C#N)=C(NC(C)c1nccs1)c1ccc(Cl)nc1Cl (stereo not drawn) [Compound 1450],3.16
5,CC(C)C(C)NC(=C(C#N)C(=O)NC1CC1)c1cccnc1Cl (stereo not drawn) [Compound 1451],2.76
6,CC(C)C(C)NC(=C(C#N)C(=O)NC1CSC1)c1cccnc1Cl (stereo not drawn) [Compound 1452],3.22^[c]; 3.22^[b]
7,CC(C)C(C)NC(=C(C#N)C(=O)NC1CCC1)c1cccnc1Cl (stereo not drawn) [Compound 1453],3.44^[c]; 3.44^[b]
8,CCONC(=O)C(C#N)=C(NC(C)C(C)C)c1cccnc1Cl (stereo not drawn) [Compound 1454],2.44^[c]; 2.44^[b]
9,CC(C)C(C)NC(=C(C#N)C(=O)NC1COC1)c1cccnc1Cl (stereo not drawn) [Compound 1455],2.26
10,CC(C)C(C)NC(=C(C#N)C(=O)NC1CC1F)c1cccnc1Cl (stereo not drawn) [Compound 1456],2.83^[c]; 2.83^[b]
11,CCOC(=O)C(C#N)=C(NC(C)C(C)C)c1cccnc1-c1ccc(C(F)(F)F)cc1 (stereo not drawn) [Compound 1457],4.25
12,C=CCNC(=O)C(C#N)=C(NC(C)C(C)C)c1cccnc1Cl (stereo not drawn) [Compound 1458],3^[c]; 3^[b]
13,CONC(=O)C(C#N)=C(NC(C)c1nccs1)c1ccc(Cl)nc1Cl (stereo not drawn) [Compound 1459],1.94
14,CNC(=O)C(C#N)=C(NC(C)c1nccs1)c1ccc(Cl)nc1Cl (stereo not drawn) [Compound 1460],2.29
15,C=CCONC(=O)C(C#N)=C(NC(C)C(C)C)c1cccnc1Cl (stereo not drawn) [Compound 1461],2.62
16,CC(C)C(C)NC(=C(C#N)C(=O)NC1CS(=O)(=O)C1)c1cccnc1Cl (stereo not drawn) [Compound 1469],2.29
17,CCNC(=O)C(C#N)=C(NC(C)c1nccs1)c1ccc(Cl)nc1Cl (stereo not drawn) [Compound 1471],2.65
18,CCOC(=O)C(C#N)=C(NC(C)C(C)C)c1cccnc1-c1ccc(OC)cc1 (stereo not drawn) [Compound 1472],3.59
